Here are results for 2 compounds from patent publication US20200164023A1, “METHODS FOR PREVENTING AND TREATING INTRA-ABDOMINAL CANDIDIASIS” (Cidara Therapeutics, Inc., priority 2017, published 2020).

Numbered stars: 1 amine (or outer) side, 2 acyl side, 3 side chain; on linkers, the order of the positions; unused ones are H or OH. Bridge positions count the residues as written; N and C are the ends. Square brackets hold non-standard residues; d marks the D form. Peptide text beside a SMILES is read from it. * marks the point of attachment. pTerphenylCO(4''-OnC5H11) = CCCCCOc1ccc(-c2ccc(-c3ccc(C(=O)*)cc3)cc2)cc1; Orn(4R-OH,5R-OH) = O=C([C@H](C[C@@H](O)[C@@H](O)N[*:3])N[*:1])[*:2]; hTyr(3S-OH,4S-OH) = N[C@H](C(=O)O)[C@H](O)[C@@H](O)c1ccc(O)cc1; Pro(3S-OH,4S-Me) = C[C@H]1CN[C@H](C(=O)O)[C@H]1O; Hyp = O=C(O)[C@@H]1C[C@@H](O)CN1

The assay concerns C. glabrata isolates. Briefly: Susceptibility profiles of C. glabrata clinical isolates. It is filed as cell-based. From the text: 168 C. glabrata isolates are collected from blood or other sterile sites in our repository. 11 clinical isolates are selected that display various susceptibility profiles against anidulafungin, caspofungin, and micafungin, and/or harbor mutant or wild-type FKS genes (Table 1). Additionally, 29 isolates are picked that are susceptible to all three echinocandins and harbor wild-type FKS genes. These 40 clinical isolates undergo CD101 susceptibility testing according to the CLSI broth microdilution reference methods. Stock solutions are prepared in DMSO. […] MICs are determined visually after 24-h of incubation. C. krusei ATCC 6258 and C. parapsilosis ATCC 22019 are included for quality controls.

On to `CCCCCOc1ccc(-c2ccc(-c3ccc(C(=O)N[C@H]4C[C@@H](O)[C@@H](O)NC(=O)[C@@H]5[C@@H](O)[C@@H](C)CN5C(=O)[C@H]([C@@H](C)O)NC(=O)[C@H]([C@H](O)[C@@H](O)c5ccc(O)cc5)NC(=O)[C@@H]5C[C@@H](O)CN5C(=O)[C@H]([C@@H](C)O)NC4=O)cc3)cc2)cc1` [Anidulafungin, anidulafungin] ({pTerphenylCO(4''-OnC5H11)}-[Orn(4R-OH,5R-OH)]T[Hyp][hTyr(3S-OH,4S-OH)]T[Pro(3S-OH,4S-Me)]; lactam 1-C), for which the “susceptibility profile, value” is, setting by setting: (Isolate 1, FKS R653I) 0.015; (Isolate 2, FKS Wild-type) 0.015; (Isolate 3, FKS F659L) 0.06; (Isolate 4, FKS F659S) 0.5; (Isolate 5, FKS R636S) 0.5; (Isolate 6, FKS F659del) 2. In addition, the “susceptibility profile, value” runs as follows: (Isolate 7, FKS S663P) 2; (Isolate 8, FKS S663P) 0.5; (Isolate 9, FKS D632Y) 0.5; (Isolate 10, FKS D632Y) 1; (Isolate 11, FKS F659del) 2.

For the compound `CC[C@H](C)C[C@H](C)CCCCCCCCC(=O)N[C@H]1C[C@@H](O)[C@@H](NCCN)NC(=O)[C@@H]2[C@@H](O)CCN2C(=O)[C@H]([C@H](O)CCN)NC(=O)[C@H]([C@H](O)[C@@H](O)c2ccc(O)cc2)NC(=O)[C@@H]2C[C@@H](O)CN2C(=O)[C@H]([C@@H](C)O)NC1=O` [Caspofungin, caspofungin], the “susceptibility profile, value” by setting is: (Isolate 1, FKS R653I) 0.125; (Isolate 2, FKS Wild-type) 0.25; (Isolate 3, FKS F659L) 1; (Isolate 4, FKS F659S) 1; (Isolate 5, FKS R636S) 4; (Isolate 6, FKS F659del) 8. The “susceptibility profile, value” by setting is: (Isolate 7, FKS S663P) 8; (Isolate 8, FKS S663P) 0.5; (Isolate 9, FKS D632Y) 2; (Isolate 10, FKS D632Y) 2; (Isolate 11, FKS F659del) 16.
